This note sets out measurements from US9585391B2, “Pesticidal mixtures” (priority 2009, dated 2017).

Assay type in all cases: in vivo
Experiment [1] deals with cucumber cotyledons. Briefly: growth (biomass) of cucumber cotyledons. As to conditions: for stimulation of the growth of the cotyledons: applied alone; for Mean cotyledon biomass: 4 days in the dark at 21.5° C.; for Observed efficacy: % biomass increase compared to the control. The procedure: The effect of fluxapyroxad solo, dicamba solo and a mixture comprising both compounds on the growth (biomass) of cucumber cotyledons was evaluated. […] Subsequently, 20 to 30 cotyledons per treatment were cut and placed in a Petri dish containing 10 ml of the treatment solution as described below. Control cotyledons were treated with the 0.5% DMSO solution only. Following the incubation in the dark at 21.5° C. for 4 days the cotyledons were weight and the fresh biomass recorded (table 2). […] The efficacy of the tested active ingredients was calculated as % of biomass increase compared to the control: E=(a/b−1)·100 a corresponds to biomass of cotyledons after incubation in the treated plants in g; and b corresponds to biomass of cotyledons after incubation in the control in g. […] The expected efficacies of the combinations of the active ingredients were estimated using Colby's formula (Colby, S.

For experiment [2], the system named is wheat plants. In words: water loss through transpiration of cut wheat plants (drought tolerance). As to conditions: for transpiration (water loss): applied alone. On the procedure: The transpiration as an direct indicator of water stress of wheat plants treated or not treated with fluxapyroxad solo, dicamba solo, and respective mixtures thereof was assessed. 10 to 14 days old wheat plants were cut above the ground and placed into Eppendorf caps containing 2.2 ml of the test solution as described below. The wheat plants were incubated for 24 h at 25° C. and 50% relative humidity in a growth chamber. The weight of the Eppendorf cap including the test solution but excluding the plant was assessed before and after incubation. The difference in weight was recorded as the loss of water through transpiration. This assay was used to asses the drought tolerance of the plants. In the present example wheat plants of the variety ‘Monopol’ were grown at 18° C. for 10 days in the greenhouse prior to the treatment and the incubation. 10 plants per treatment were treated and incubated as described. Fluxapyroxad and dicamba were dissolved on 0.5% DMSO. The tested concentrations are described in table 3. Control plants were treated with the blank 0.5% DMSO solution only. The efficacy of the tested compounds and mixtures was calculated as % of water loss compared to the control; […] The expected efficacies of the combinations of the compounds were estimated using Colby's formula (Colby, S.

In experiment [3] the test system is wheat leaves. In words: relative weight loss of detached wheat leaves (drought tolerance). As to conditions: for fresh weight loss: applied alone. The procedure: The relative weight loss of wheat leaves treated or not treated with fluxapyroxad, dicamba, and mixtures thereof as an indirect parameter for increased drought tolerance was assessed. Leaves of 10 to 14 days old wheat plants were detached and placed into Eppendorf caps containing 2.2 ml of the test solution as described below. The wheat leaves were incubated for 24 h at 25° C. and 50% relative humidity in a growth chamber. After incubation, the incubated leaves were removed from the solution and placed on filter paper in a growth chamber for 60 minutes (25° C., 50% rel. humidity). Fresh biomass of the leaves was assessed directly after incubation and in addition after 60 minutes. The difference in fresh weight was recorded as relative weight loss. The relative loss of fresh weight is calculated as: [formula] In the present example wheat plants of the variety ‘Monopol’ were grown at 18° C. for 10 days in the greenhouse prior to the treatment and the incubation. 10 plants per treatment were treated and incubated as described. Fluxapyroxad and dicamba were dissolved on 0.5% DMSO. Tested concentrations are described in table 4. Control plants were treated with the blank 0.5% DMSO solution only. The efficacy of the tested compounds and mixtures was calculated as % of relative weight loss compared to the control: […] The expected efficacies of the combinations of the compounds were estimated using Colby's formula (Colby, S.

Regarding `COc1c(Cl)ccc(Cl)c1C(=O)O` [Dicamba, dicamba], the “stimulation of the growth of the cotyledons” value in experiment [1] is on record as “no stimulation of the growth”. The Mean cotyledon biomass in experiment [1] (dicamba 1.25 ppm) was 48.2 mg. The Observed efficacy in experiment [1] (dicamba 1.25 ppm) is 0.2%; in experiment [2] (dicamba 1.25 ppm), −4.8%; in experiment [2] (dicamba 12.5 ppm), −2.7%; in experiment [2] (dicamba 125 ppm), 1.1%; in experiment [3] (dicamba 1.25 ppm), 10.69%; in experiment [3] (dicamba 12.5 ppm), 17.76%. Also, the Mean water loss in experiment [2] (dicamba 1.25 ppm) is on record as 0.781 g; in experiment [2] (dicamba 12.5 ppm) it was 0.765 g; in experiment [2] (dicamba 125 ppm), 0.737 g. The “transpiration (water loss)” value in experiment [2] (lower concentrations) was “increased transpiration”. For the same molecule, the fresh weight loss result in experiment [3] is on record as “reduced fresh weight loss”. The figures for the “Mean relative weight loss” value in experiment [3] (dicamba 1.25 ppm) and in experiment [3] (dicamba 12.5 ppm) were 17.09% and 15.74%, respectively.

As to `Cn1cc(C(=O)Nc2ccccc2-c2cc(F)c(F)c(F)c2)c(C(F)F)n1` [Fluxapyroxad, N-(3′,4′,5′-trifluorobiphenyl-2-yl)-3-difluoromethyl-1-methyl-1H-pyrazole-4-carboxamide], in experiment [1], the “stimulation of the growth of the cotyledons” value is “no stimulation of the growth”. Moreover, the Mean cotyledon biomass in experiment [1] (fluxapyroxad 5 ppm) came to 47.1 mg. For the same molecule, the Observed efficacy in experiment [1] (fluxapyroxad 5 ppm) was −1.9%; in experiment [2] (fluxapyroxad 10 ppm, water loss compared to the control), −42.4%; in experiment [2] (fluxapyroxad 50 ppm), 11.5%; in experiment [2] (fluxapyroxad 100 ppm), 18.5%; in experiment [3] (fluxapyroxad 10 ppm, relative weight loss compared to the control), 7.94%; in experiment [3] (fluxapyroxad 50 ppm), 28.89%. For the same molecule, the Mean water loss came out at 1.061 g in experiment [2] (fluxapyroxad 10 ppm, 24 h at 25° C., 50% relative humidity); 0.660 g in experiment [2] (fluxapyroxad 50 ppm); 0.607 g in experiment [2] (fluxapyroxad 100 ppm). Further, the figures for the “transpiration (water loss)” value in experiment [2] (higher concentrations) and in experiment [2] (lower concentrations) were “decreased transpiration” and “increased transpiration”, respectively. In experiment [3], the fresh weight loss entry was “reduced fresh weight loss”. Moreover, the “Mean relative weight loss” value was found to be 17.62% in experiment [3] (fluxapyroxad 10 ppm, 24 h incubation, then 60 minutes on filter paper (25° C., 50% rel. humidity)) and 13.61% in experiment [3] (fluxapyroxad 50 ppm).
